Data as given in US7001600B1, “Identification of TRP-2 as a human tumor antigen recognized by cytotoxic T lymphocytes” (The United States of America as represented by the …, priority 1996, dated 2006).
Entries after “also recorded” stand apart in the source; their conditions may differ.

Assays:
Assay type in all cases: cell-based, human
[1] = test system: CTL clone 4 (TRP-2); test: GM-CSF secretion assay: CTL clone 4 co-incubated with peptide-pulsed target cells; conditions: for CTL clone 4 GM-CSF release: 586EBV cells pulsed with peptide at 0.5-g/ml for 90 min, in pg/mL
Source text: (§1) The T cell clones were generated by limiting dilution methods (at 1 cells/well) from the TIL586 cell line, and used allogenic PBL (1×10^3 cells/well) as feeder cells in RPMI1640 containing 10% human AB sera and 500 IU IL-2. After 12 days, T cell clones were then expanded in AIM-V medium containing 6000 IU/ml IL-2. To obtain an optimal expansion, we used the OKT3 expansion method described by S. Riddell (Walter et al. (1995)). Briefly, on day 0, 5×10^4 5×10^5 T cells were cocultured with HLA-A31 PBL (500:1, PBL: T cell ratio) and 586EBV B cells (100: 1, EBV: T cell ratio) in 25 ml RPMI 1640 containing 11% human sera, 30 ng/ml OKT3 antibody and antibiotics. On day 1, IL-2 was added at final concentration of 180 IU/ml. The media were changed with fresh media containing 11% human sera, IL-2 180 IU/ml on day 5. The media were then changed every three days. On day 12–14, T cells were harvested, counted and cryopreserved. TIL586 were isolated from the tumor specimen of a patient with metastatic melanoma and grown in medium containing IL-2 (6000 IU/ml) (Chiron) for 32–60 days as previously described [Topalian et al. 1988). TIL586 were predominantly CD8+ T cells. DNA transfection and GM-CSF assays were performed as previously described (Wang et al. 1995). Briefly, 200 ng of DNA encoding antigens and 50 ng of the HLA-A31 DNA were mixed with 2 μl of lipofectamine in […] of DMEM for 15–45 min. The DNA/lipofectamine mixture was then added to the COS-7 (5×104) cells and incubated overnight. The following day, cells were washed twice with DMEM medium. TIL586 was added at a concentration of 1×10^5 cells/well in AIM-V medium containing 120 IU/ml of IL-2. For T cell clones, only 1–2×10^4 cells/well were added. After 18–24 h incubation, 100 μl of supernatant was collected and GM-CSF was measured in a standard ELISA assay (R+D^− Systems, Minneapolis, Minn.). For testing peptides recognition, 586EBV or T2 cells were incubated with peptides at 37° C. for 90 min, and then washed three times with AIM-V medium containing 120 IU/ml of IL-2. T cells were added and incubated for an additional 18–24 h, 100 μl of supernatant was collected for GM-CSF assay.

[2] = test system: CTL clone 1 (TRP-1); test: GM-CSF secretion assay: CTL clone 1 (TIL586-C1) co-incubated with peptide-pulsed target cells
Source text: as §1

[3] = test system: CTL clone 1 (TRP-1); test: as above; conditions: 1510EBV (HLA-A31+) cells pulsed with peptide at 1-g/ml for 90 min
[4] = test system: CTL clone 4; test: Cytotoxicity assay (Calcein AM): lysis of peptide-pulsed target cells by CTL clone 4; conditions: for lysis of peptide-pulsed 586EBV B cells by CTL clone 4 (in words): different E:T ratios, peptide pulsed 90 min
Protocol: Cytolysis was determined by use of Calcein AM (Molecular Probes, Eugene, Oreg.). Briefly, T2 or 586EBV B cells were pulsed with peptides in RPMI1640/5% FCS for 90 min. Tumor cells and the peptide pulsed EBV B cells were labelled with Calcein AM (15 μl of 1 mg/ml Calcein AM for every 1×10^6 cells) for 30 min at 37. C. Following incubation, cells were washed three times with AIM V/120 IU IL-2. 1×10^3 target cells were mixed with T cells at various E:T ratio. After 4 h incubation at 37° C., 5 μl of bovine hemoglobin quench solution containing ethidium bromide was added. The plate was read by Lambda scan. The percentage of lysis was calculated from the following equation: [1−(A−B)/(C−B)]×100 where A is the reading of non-lysed cells in the presence of T cells, B is background signal value and C is the maximum signal value from target cells.

[5] = test system: CTL clone 4 (TRP-2); test: GM-CSF secretion assay: CTL clone 4 co-incubated with peptide-pulsed target cells; conditions: 1510EBV (HLA-A31+) cells pulsed with peptide at 1-g/ml for 90 min
[6] = 586EBV (HLA-A31+) cells pulsed with peptide at 1-g/ml for 90 min, T cells alone subtracted
[7] = T2 (HLA-A31 negative) cells pulsed with peptide at 1-g/ml for 90 min
[8] = peptide pulsed on 586EBV B cells
[9] = titration, peptide pulsed on 586EBV B cells
[10] = 586EBV B cells pulsed with peptide, E:T ratio 40:1, 4 h

Sequence: ALGPGRPYR
- CTL clone 4 GM-CSF release ([1]; T cells alone subtracted): <50

Sequence: FVWLHYYSVR [TRP185–194, synthetic TRP-2 peptide]
- GSM-CSF release CTL clone 1 (TRP-1) [2, 6]: < 50 pg/mL
- GSM-CSF release CTL clone 4 (TRP-2) [1, 6]: < 50 pg/mL

Sequence: GPAFVTWHR [TRP213–221, synthetic TRP-2 peptide]
- GSM-CSF release CTL clone 1 (TRP-1) [2, 6]: < 50 pg/mL
- GSM-CSF release CTL clone 4 (TRP-2) [1, 6]: < 50 pg/mL

Sequence: KLGPGRPYR
- CTL clone 4 GM-CSF release ([1]; T cells alone subtracted): 420

Sequence: LAGPGRPYR
- CTL clone 4 GM-CSF release ([1]; T cells alone subtracted): 550

Sequence: LFGPGRPYR
- CTL clone 4 GM-CSF release ([1]; T cells alone subtracted): <50

Sequence: LGPGRPYR
- CTL clone 4 GM-CSF release ([1]; T cells alone subtracted): <50

Sequence: LIGPGRPYR
- CTL clone 4 GM-CSF release ([1]; T cells alone subtracted): 2545

Sequence: LLAPGRPYR
- CTL clone 4 GM-CSF release ([1]; T cells alone subtracted): <50

Sequence: LLFPGRPYR
- CTL clone 4 GM-CSF release ([1]; T cells alone subtracted): <50

Sequence: LLGPGAPYR
- CTL clone 4 GM-CSF release ([1]; T cells alone subtracted): <50

Sequence: LLGPGFPYR
- CTL clone 4 GM-CSF release ([1]; T cells alone subtracted): 738

Sequence: LLGPGIPYR
- CTL clone 4 GM-CSF release ([1]; T cells alone subtracted): <50

Sequence: LLGPGKPYR
- CTL clone 4 GM-CSF release ([1]; T cells alone subtracted): 321

Sequence: LLGPGRPYH
- CTL clone 4 GM-CSF release ([1]; T cells alone subtracted): <50

Sequence: LLGPGRPYK
- CTL clone 4 GM-CSF release ([1]; T cells alone subtracted): 2000

Sequence: LLGPGRPYR [TRP197–205, 9mer antigenic peptide of TRP-2, amino acids 197–205]
- GSM-CSF release CTL clone 1 (TRP-1) [3]: < 50 pg/mL
- GSM-CSF release CTL clone 1 (TRP-1) [2, 6]: < 50 pg/mL
- GSM-CSF release CTL clone 1 (TRP-1) [2, 7]: < 50 pg/mL
- GSM-CSF release CTL clone 4 (TRP-2) [1, 6]: > 4000 pg/mL
- CTL clone 4 GM-CSF release ([1]; T cells alone subtracted): 3450
- GSM-CSF release CTL clone 4 (TRP-2) [1, 7]: < 50 pg/mL
- recognition by CTL clone 4 / stimulation of cytokine release (in words) [1, 8]: strongly recognized; also recorded: most efficiently stimulated cytokine release from T cells
- peptide concentration at which stimulation of GM-CSF release reached a plateau [1, 9]: 500 nM
- peptide concentration sufficient to stimulate GM-CSF release from T cell clone 4 [1, 9]: 1 nM
- peptide concentration at which lysis of target cells by CTL clone 4 was detected [4, 10]: 1 nM
- peptide concentration of maximum lysis [4, 10]: 100 nM
- lysis of peptide-pulsed 586EBV B cells by CTL clone 4 (in words) [4]: capable of lysing
- GSM-CSF release CTL clone 4 (TRP-2) [5]: > 4000 pg/mL

Sequence: LLGPGRPYRA
- CTL clone 4 GM-CSF release ([1]; T cells alone subtracted): 545

Sequence: LLGPGVPYR
- CTL clone 4 GM-CSF release ([1]; T cells alone subtracted): <50

Sequence: LLLPGRPYR
- CTL clone 4 GM-CSF release ([1]; T cells alone subtracted): <50

Sequence: LSGPGRPYR
- CTL clone 4 GM-CSF release ([1]; T cells alone subtracted): 3300

Sequence: LVGPGRPYR
- CTL clone 4 GM-CSF release ([1]; T cells alone subtracted): 2100

Sequence: MSLQRQFLR [ORF3P, control peptide derived from the alternative open reading frame of the TRP-1 gene, reference compound]
- GSM-CSF release CTL clone 1 (TRP-1) [3]: > 6000 pg/mL
- GSM-CSF release CTL clone 1 (TRP-1) [2, 6]: > 8000 pg/mL
- GSM-CSF release CTL clone 1 (TRP-1) [2, 7]: < 50 pg/mL
- GSM-CSF release CTL clone 4 (TRP-2) [1, 6]: < 50 pg/mL
- GSM-CSF release CTL clone 4 (TRP-2) [1, 7]: < 50 pg/mL
- lysis of peptide-pulsed 586EBV B cells by CTL clone 4 (in words) [4]: failed to lyse
- GSM-CSF release CTL clone 4 (TRP-2) [5]: < 50 pg/mL

Sequence: RDTLLGPGR [TRP194–202, synthetic TRP-2 peptide]
- GSM-CSF release CTL clone 1 (TRP-1) [2, 6]: < 50 pg/mL
- GSM-CSF release CTL clone 4 (TRP-2) [1, 6]: < 50 pg/mL

Sequence: RLGPGRPYR
- CTL clone 4 GM-CSF release ([1]; T cells alone subtracted): <50

Sequence: TLLGPGRPYR [10mer extended byone amino acid at the N-terminus of TRP 197-205]
- CTL clone 4 GM-CSF release ([1]; T cells alone subtracted): 2100
- reactivity (GM-CSF release, CTL clone 4) relative to the parental 9mer LLGPGRPYR [1, 8]: about 60%

Sequence: VWLHYYSVR [TRP186–194, synthetic TRP-2 peptide]
- GSM-CSF release CTL clone 1 (TRP-1) [2, 6]: < 50 pg/mL
- GSM-CSF release CTL clone 4 (TRP-2) [1, 6]: < 50 pg/mL
